Source: publication PMC9100779, “Simple and Expedient Access to Novel Fluorinated Thiazolo- and Oxazolo[3,2-a]pyrimidin-7-one Derivatives and Their Functionalization via Palladium-Catalyzed Reactions” (Molecules, 2022)

Target: T1, human monoamine oxidase A (hMAO-A) (Homo sapiens, UniProt P21397)
T1 construct: gene MAOA
T1 sequence (P21397 1-527): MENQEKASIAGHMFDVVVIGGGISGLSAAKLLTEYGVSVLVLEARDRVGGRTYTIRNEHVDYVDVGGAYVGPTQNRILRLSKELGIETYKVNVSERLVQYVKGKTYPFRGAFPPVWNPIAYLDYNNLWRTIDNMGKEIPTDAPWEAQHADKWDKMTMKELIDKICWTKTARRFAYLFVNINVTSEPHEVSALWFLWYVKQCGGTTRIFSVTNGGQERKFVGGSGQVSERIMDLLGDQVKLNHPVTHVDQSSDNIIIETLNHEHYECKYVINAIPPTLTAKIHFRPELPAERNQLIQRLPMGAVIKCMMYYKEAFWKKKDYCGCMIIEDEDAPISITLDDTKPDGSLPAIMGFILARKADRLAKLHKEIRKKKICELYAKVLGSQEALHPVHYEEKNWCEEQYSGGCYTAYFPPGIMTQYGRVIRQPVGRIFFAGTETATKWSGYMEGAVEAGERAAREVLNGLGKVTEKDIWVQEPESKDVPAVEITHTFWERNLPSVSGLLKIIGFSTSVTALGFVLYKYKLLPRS
Test: in vitro hMAO-A enzyme inhibition assay with p-tyramine as substrate, serial dilution
Type: biochemical

IC50: 54.1 µM
Compound: O=c1cc(C(F)(F)c2ccc(Br)cc2)n2cc(Br)sc2n1 [3g, 2-Bromo-5-[(4-bromophenyl)difluoromethyl]-7H-thiazolo[3,2-a]pyrimidin-7-one]
